From patent publication US20240391912A1, “MORPHIC FORMS OF CFT7455 AND METHODS OF MANUFACTURE THEREOF” (C4 THERAPEUTICS, INC., priority 2022, published 2024)
In brackets after ≈: the same amount, converted by molar mass. One block for each compound: values may come before it.

How the values were obtained:
[1] = Approximate solubility of Compound 5 polymorphs in EtOH:DCM (v:v=1:4); assay type: physicochemical; settings: 25° C.; for Approximate solubility (visual appearance): EtOH:DCM (v:v = 1:4)
Description: Four polymorphs (Form V, Form VI, Form VII and Form VIII) were weighed respectively and a suitable amount of solvent mixture EtOH:DCM (v:v=1:4) was added. The obtained samples were stirred at a rate of 400 rpm at 25° C.

[2] = Characterization of polymorphs and pseudo-polymorphs of Compound 5; assay type: physicochemical
[3] = Solubility of Compound 5 Form VI and Form VIII at 25° C., equilibration for 24 hours (HPLC; XRPD of residual solids); assay type: physicochemical
Description: 11 mg (for 20 mg/mL target concentration) or 22 mg (for 50-60 mg/mL target concentration) of Compound 5 Form VI and Form VIII (equivalent to 10 mg or 20 mg of anhydrate free base) was weighed into a 4 mL glass vial, respectively. Up to 0.5 mL of potential eluent medium was added. The obtained suspensions/solutions were stirred at 25° C. at 400 rpm for 24 hours and then centrifuged at 25° C. at 14,000 rpm for 5 minutes. The residual solids were characterized by XRPD to determine the physical form. The supernatants (0.1 mL) were evaporated at about 22-25° C./30-60% RH.

[4] = Bulk stability of Compound 5 Form VI and Form VIII at 25° C./60% RH, open container, 1 week (XRPD, HPLC, color); assay type: physicochemical
Description: Compound 5 Form VI and Form VIII were placed at 25° C./60% RH in an open container over 1 week. Samples after the stress were characterized by XRPD and HPLC and inspected for color change.

[5] = Crystallization of Compound 5 from hot saturated solutions by fast cooling; assay type: physicochemical; settings: fast cooling to about 0° C.
Description: Based on approximate solubility results, about 30 mg of Compound 5 Form V was dissolved in a minimal amount of selected solvent at 50° C. […] No precipitate came out by fast cooling.

[6] = Crystallization of Compound 5 at room temperature by fast evaporation; assay type: physicochemical
Description: Based on approximate solubility results, about 20 mg of Compound 5 Form V was dissolved in 1-6 mL of solvents. […] The solid residue was investigated by XRPD. For samples with different XRPD patterns, ^1H-NMR was performed.

[7] = Crystallization of Compound 5 by addition of anti-solvent; assay type: physicochemical
Description: The obtained solutions were filtered through a 0.45 μm syringe membrane filter. […] Precipitates were investigated by XRPD. For samples with different XRPD patterns, ^1H-NMR was performed.

[8] = Equilibration of Compound 5 Form V with solvents at 25° C. for 1 week (XRPD); assay type: physicochemical
Description: The obtained suspensions were centrifuged at 14,000 rpm. The solid parts (wet cakes) were investigated by XRPD.

[9] = Approximate solubility of Compound 5 Form V at 25° C. (visual observation / HPLC); assay type: physicochemical; settings: for solubility: solubilized at about 25° C.
Description: About 5 mg of Compound 5 Form V was weighed to an 8 mL glass vial. 100 μL aliquots of each solvent were added to dissolve the drug substance at 25° C. Vortex and sonication were applied to assist dissolution. The maximum volume of each solvent added is 1 mL. Approximate solubility was determined by visual observation.
For low solubility samples: Aliquots of selected solvent were added to 5 mg of Compound 5 create a suspension. The suspensions were kept at 25° C. for 24 hours. The suspension was taken out and centrifuged. To eliminate solvent effect, 50 μL or 100 μL of supernatant was added into a 2 mL glass vial and evaporated at ambient condition (22-25° C., 30-60% RH).

[10] = test system: relapsed/refractory (r/r) MCL; settings: r/r subjects with MCL following bortezomib; cited from earlier work
[11] = THF/Heptane (v:v = 1:2), 25° C., 24 hours, target conc. 20 mg/mL
[12] = THF/water (v:v = 1:2.5), 25° C., 24 hours, target conc. 20 mg/mL, listed as Form VI

Approximate solubility (visual appearance) ([1]; concentration 10 mg/mL, listed as Form VI): Suspension
Approximate solubility (visual appearance) ([1]; concentration 20 mg/mL, listed as Form VI): Suspension
approximate solubility compared with Form V and Form VII ([1]; EtOH:DCM (v:v=1:4), visual observation): higher solubility
Evaporation of solvent from (by DSC) ([2]; DSC): about 154° C.;
Dehydration (by DSC) ([2]; DSC, listed as Form VI): about 6° C.;
Enthalpy (by DSC) ([2]; DSC, listed as Form VI): 35 J/g
Melting onset Tonset (by DSC) ([2]; DSC, listed as Form VI): Tonset 226.4° C.,
Weight loss (by TGA) ([2]; at 215° C.): 9.7% at 215 °C
Residual ion (by IC): Br− ([2]; listed as Form VI): Br^−: 0.22 equiv.
Residual ion (by IC): Cl− ([2]; listed as Form VI): Cl^−: 0.08 equiv.;
Residual ion (by IC): Li+ ([2]; listed as Form VI): Li^+: 0.17 equiv.;
Residual ion (by IC): Na+ ([2]; listed as Form VI): Na+: 0.02 equiv.
solubility ([3]; EtOH/DCM (v:v = 1:4), 25° C., 24 hours, target conc. 50-60 mg/mL, LOQ 0.8 μg/mL, listed as Form VI): 27000 µg/mL (≈ 57.5 mM)
solubility ([3]; MeOH/DCM (v:v = 1:2), 25° C., 24 hours, target conc. 50-60 mg/mL, LOQ 0.8 μg/mL): 30000 µg/mL (≈ 63.9 mM)
physical form after solubility test ([3]; MeOH:DCM (v:v=1:2) and EtOH:DCM (v:v=1:4), 25° C., 24 h): converted to almost the amorphous form
XRPD of residual solids [3, 11]: Form VI
solubility [3, 11]: 100 µg/mL (≈ 0.213 mM)
XRPD of residual solids ([3]; THF/IPA (v:v = 1:2), 25° C., 24 hours, target conc. 20 mg/mL): Form VI
solubility ([3]; THF/IPA (v:v = 1:2), 25° C., 24 hours, target conc. 20 mg/mL, listed as Form VI): 900 µg/mL (≈ 1.92 mM)
XRPD of residual solids [3, 12]: Form VI
solubility [3, 12]: 4000 µg/mL (≈ 8.52 mM)
physical form after solubility test ([3]; THF:2-propanol (v:v=1:2), THF:Heptane (v:v=1:2) and THF:water (v:v=1:2.5), 25° C., 24 h): no form change
solubility ([3]; in EtOH/DCM (v:v=1:4), about 25° C., 24 h, listed as Form VI): ~27000 µg/mL (≈ 57.5 mM)
solubility ([3]; in MeOH/DCM (v:v=1:2), about 25° C., 24 h): about 30 mg/mL
solubility ([3]; in MeOH:DCM (v:v=1:2) and EtOH:DCM (v:v=1:4), 25° C. for 24 h, listed as Form VI): ~30000 µg/mL (≈ 63.9 mM)
solubility ([3]; in THF:IPA (v:v=1:2), THF:Heptane (v:v=1:2) and THF:Heptane (v:v=1:2.5), 25° C. for 24 h): ~1000 µg/mL (≈ 2.13 mM)
bulk stability, chemical [4]: chemically stable
bulk stability, physical (form) ([4]; listed as Form VI): good physical stability
Bulk (HPLC) Purity ([4]; solid state, initial purity 93.1% (Form VI), 95.6% (Form VIII), listed as Form VI): 93.1%
Bulk (XRPD) ([4]; solid state, listed as Form VI): Form VI
SMILES: O=C1CCC(N2C(=O)c3cccc4c(Cc5ccc(CN6CCOCC6)cc5)ccc2c34)C(=O)N1 (racemic) [Compound 5 Form VI]

Comments ([5]; 1-Methyl-2-pyrrolidinone, 50° C.): Clear solution
Comments ([5]; Acetone, dissolved at 50° C.): Clear solution
Comments ([5]; Benzyl alcohol, 50° C.): Clear solution
Comments ([5]; Chloroform, 50° C.): Clear solution
Comments ([5]; DMF, 50° C.): Clear solution
Comments ([5]; Pyridine, 50° C.): Clear solution
Comments ([5]; THF, 50° C.): Clear solution
Comments ([5]; Trifluoroethanol, 50° C.): Clear solution
XRPD ([6]; fast evaporation from 1-Methyl-2-pyrrolidinone): Form VII
XRPD ([6]; fast evaporation from Benzyl alcohol): Form V
XRPD ([6]; fast evaporation from Chloroform): Amorphous form
XRPD ([6]; fast evaporation from DMSO, room temperature, dry nitrogen flow): Form VI
XRPD ([6]; fast evaporation from THF): Form V
Additional analysis (appearance of residue) ([6]; fast evaporation from Trifluoroethanol): Oil
Additional analysis 1H-NMR: DMSO ([6]; residue (Form VI) of fast evaporation from DMSO): ^1H-NMR: 0.4 equiv. DMSO
Additional analysis 1H-NMR: NMP ([6]; residue (Form VII) of fast evaporation from 1-Methyl-2-pyrrolidinone, 2 unknown peaks): ^1H-NMR: 1.6 equiv. NMP;
Approximate solubility (visual appearance) ([1]; concentration 5 mg/mL): Suspension
Approximate solubility (visual appearance) ([1]; concentration 10 mg/mL, listed as Form V): Suspension
Approximate solubility (visual appearance) ([1]; concentration 20 mg/mL, listed as Form V): Suspension
Residual solvent (by 1H-NMR): THF [2]: 0.4% residual of
Endothermic onset (by DSC) ([2]; DSC): onset at 220.0 °C
Dehydration (by DSC) ([2]; DSC, listed as Form V): Tonset 38.5° C.;
Crystallinity (by XRPD) ([2]; XRPD method 2): Crystalline
Weight loss (by TGA) ([2]; at 140° C.): 5.1% at 140 °C
Additional analysis 1H-NMR: DMF ([7]; precipitate (Form VIII) from DMF(1.0 mL)/H2O (2.0 mL)): 2 equiv. DMF
XRPD ([7]; solvent DMF(1.0 mL), anti-solvent H2O (2.0 mL)): Form VIII
XRPD ([8]; equilibration in Acetone): Form V
XRPD ([8]; equilibration in Benzyl alcohol): Form V
XRPD ([8]; equilibration in Chloroform): Form V
XRPD ([8]; equilibration in DMF): Form V
XRPD ([8]; equilibration in MeOH/DCM (v:v = 1:1)): Form V
XRPD ([8]; equilibration in Pyridine, wet cake): Form V
XRPD ([8]; equilibration in THF): Form V
XRPD ([8]; equilibration in Trifluoroethanol): Form V
Solubility (mg/mL) at 25° C. ([9]; 1,4-Dioxane, tested by HPLC): 2.3 mg/mL (≈ 4.9 mM)
Solubility (mg/mL) at 25° C. ([9]; 1-Methyl-2-pyrrolidinone, tested by observation): >50 mg/mL
Solubility (mg/mL) at 25° C. ([9]; 2-Me THF, tested by HPLC): 0.2 mg/mL (≈ 0.426 mM)
Solubility (mg/mL) at 25° C. ([9]; Acetic acid, tested by HPLC): 5.5 mg/mL (≈ 11.7 mM)
Solubility (mg/mL) at 25° C. ([9]; Acetone, tested by HPLC): 3.3 mg/mL (≈ 7.03 mM)
Solubility (mg/mL) at 25° C. ([9]; Acetonitrile, tested by HPLC): 2.2 mg/mL (≈ 4.69 mM)
Solubility (mg/mL) at 25° C. ([9]; Anisole, tested by HPLC): 1.1 mg/mL (≈ 2.34 mM)
Solubility (mg/mL) at 25° C. ([9]; Benzyl alcohol, tested by observation): 12 to 25 mg/mL
Solubility (mg/mL) at 25° C. ([9]; Chloroform, tested by observation): 5 to 10 mg/mL
Solubility (mg/mL) at 25° C. ([9]; DMF, tested by observation): 25 to 50 mg/mL
Solubility (mg/mL) at 25° C. ([9]; DMSO, tested by observation): >50 mg/mL
Solubility (mg/mL) at 25° C. ([9]; Ethanol, tested by HPLC): 0.6 mg/mL (≈ 1.28 mM)
Solubility (mg/mL) at 25° C. ([9]; Ethyl acetate, tested by HPLC): 0.1 mg/mL (≈ 0.213 mM)
Solubility (mg/mL) at 25° C. ([9]; MeOH/DCM (v:v = 1:1), tested by observation): ~5 mg/mL (≈ 10.6 mM)
Solubility (mg/mL) at 25° C. ([9]; Methanol, tested by HPLC): 0.2 mg/mL (≈ 0.426 mM)
Solubility (mg/mL) at 25° C. ([9]; Propylene glycol methyl ether, tested by HPLC): 2.3 mg/mL (≈ 4.9 mM)
Solubility (mg/mL) at 25° C. ([9]; Propylene glycol, tested by HPLC): 3.4 mg/mL (≈ 7.24 mM)
Solubility (mg/mL) at 25° C. ([9]; Pyridine, tested by observation): 25 to 50 mg/mL
Solubility (mg/mL) at 25° C. ([9]; THF, tested by HPLC): 3.8 mg/mL (≈ 8.09 mM)
Solubility (mg/mL) at 25° C. ([9]; Toluene, tested by HPLC): 0.2 mg/mL (≈ 0.426 mM)
Solubility (mg/mL) at 25° C. ([9]; Trifluoroethanol, tested by observation): 25 to 50 mg/mL
solubility ([9]; in 1-methyl-2-pyrrolidinone): at least 50 mg/mL
solubility ([9]; in DMSO): at least 50 mg/mL
SMILES: O=C1CCC(N2C(=O)c3cccc4c(Cc5ccc(CN6CCOCC6)cc5)ccc2c34)C(=O)N1 (racemic) [Compound 5 Form V]

SMILES: Nc1cccc2c1CN(C1CCC(=O)NC1=O)C2=O (centres unmarked) [lenalidomide]
median duration of response [DOR] [10]: 16.6 months
overall response rate [ORR] [10]: 28%
